Test results from patent publication US10597388B2, “Pyridazinone herbicides” (FMC CORPORATION, priority 2014, dated 2020).

What was measured:
Assay in all cases: Test C greenhouse herbicide test, pre- and postemergence
Format in all cases: in vivo
[1] = test system: oilseed rape (Brassica napus)
Outline: (§1)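 Two application timings: at sowing into a soil/sand blend, and on 2–18 cm seedlings in peat-vermiculite potting mix. A non-phytotoxic, surfactant-containing solvent carried the compounds. Plants were compared with controls and rated visually on 0–100 after 13–15 d.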

soybean (Glycine max) = test system: soybean (Glycine max)
Outline: as §1

[2] = test system: crabgrass, large (large crabgrass, Digitaria sanguinalis)
Outline: as §1

[3] = test system: johnsongrass (Sorghum halepense)
Outline: as §1

[4] = test system: barnyardgrass (Echinochloa crus-galli)
Outline: as §1

[5] = test system: waterhemp (common waterhemp, Amaranthus rudis)
Outline: as §1

[6] = test system: pigweed (Amaranthus retroflexus)
Outline: as §1

[7] = test system: nutsedge, yellow (yellow nutsedge, Cyperus esculentus)
Outline: as §1

[8] = test system: morningglory (Ipomoea coccinea)
Outline: as §1

[9] = test system: foxtail, giant (giant foxtail, Setaria faberii)
Outline: as §1

[10] = test system: ragweed (common ragweed, Ambrosia elatior)
Outline: as §1

[11] = test system: wheat (winter wheat, Triticum aestivum)
Outline: as §1

[12] = test system: galium (catchweed bedstraw, Galium aparine)
Outline: as §1

[13] = test system: lambsquarters (Chenopodium album)
Outline: as §1

[14] = test system: velvetleaf (Abutilon theophrasti)
Outline: as §1

[15] = test system: blackgrass (Alopecurus myosuroides)
Outline: as §1

[16] = Postemergence, 31 g ai/ha, scale 0 to 100 (0 no effect, 100 complete control)
[17] = Postemergence, 62 g ai/ha, 0 to 100 scale (0 no effect, 100 complete control)
[18] = Postemergence, 250 g ai/ha, scale 0 to 100, 0 no effect, 100 complete control, 13 to 15 d
[19] = Preemergence, 31 g ai/ha, scale 0 to 100, 0 is no effect, 100 is complete control
[20] = Preemergence, 62 g ai/ha, scale 0 to 100, 0 is no effect, 100 is complete control
[21] = Preemergence, 125 g ai/ha, scale 0 to 100, 0 is no effect, 100 is complete control
[22] = Preemergence, 250 g ai/ha, scale 0 to 100 (0 no effect, 100 complete control)
[23] = postemergence, 125 g ai/ha, scale 0 to 100, 0 no effect, 100 complete control

## Cc1cc(C)c2ccccc2c1-c1c(OS(C)(=O)=O)c(C)nn(C)c1=O [Compound 154]
[1]; [16]
  Plant response rating, Oilseed Rape: 75
[1]; [17]
  Oilseed Rape plant response rating: 90
[1]; [18]
  Plant response rating, Oilseed Rape: 95
[1]; [19]
  Plant response rating, Oilseed Rape: 80
[1]; [20]
  Plant response rating, Oilseed Rape: 85
[1]; [21]
  Plant response rating, Oilseed Rape: 98
[1]; [22]
  Oilseed Rape plant response rating: 98
[1]; [23]
  Oilseed Rape plant response rating: 98
Soybean (Glycine max); [16]
  Plant response rating, Soybean: 10
Soybean (Glycine max); [17]
  Soybean plant response rating: 20
Soybean (Glycine max); [18]
  Plant response rating, Soybean: 25
Soybean (Glycine max); [19]
  Plant response rating, Soybean: 0
Soybean (Glycine max); [20]
  Plant response rating, Soybean: 5
Soybean (Glycine max); [21]
  Plant response rating, Soybean: 5
Soybean (Glycine max); [22]
  Soybean plant response rating: 20
Soybean (Glycine max); [23]
  Soybean plant response rating: 20
[2]; [16]
  Plant response rating, Crabgrass, Large: 65
[2]; [17]
  Crabgrass, Large plant response rating: 70
[2]; [18]
  Plant response rating, Crabgrass, Large: 75
[2]; [19]
  Plant response rating, Crabgrass, Large: 70
[2]; [20]
  Plant response rating, Crabgrass, Large: 85
[2]; [21]
  Plant response rating, Crabgrass, Large: 90
[2]; [22]
  Crabgrass, Large plant response rating: 100
[2]; [23]
  Crabgrass, Large plant response rating: 70
[3]; [16]
  Plant response rating, Johnsongrass: 5
[3]; [17]
  Johnsongrass plant response rating: 5
[3]; [18]
  Plant response rating, Johnsongrass: 20
[3]; [19]
  Plant response rating, Johnsongrass: 10
[3]; [20]
  Plant response rating, Johnsongrass: 45
[3]; [21]
  Plant response rating, Johnsongrass: 50
[3]; [22]
  Johnsongrass plant response rating: 75
[3]; [23]
  Johnsongrass plant response rating: 20
[4]; [16]
  Plant response rating, Barnyardgrass: 70
[4]; [17]
  Barnyardgrass plant response rating: 85
[4]; Postemergence, 125 g ai/ha, scale 0 to 100, 0 is no effect, 100 is complete control
  Plant response rating, Barnyardgrass: 90
[4]; [18]
  Plant response rating, Barnyardgrass: 95
[4]; [19]
  Plant response rating, Barnyardgrass: 65
[4]; [20]
  Plant response rating, Barnyardgrass: 80
[4]; [21]
  Plant response rating, Barnyardgrass: 90
[4]; [22]
  Barnyardgrass plant response rating: 95
[5]; [16]
  Plant response rating, Waterhemp: 75
[5]; [17]
  Waterhemp plant response rating: 80
[5]; [18]
  Plant response rating, Waterhemp: 70
[5]; [19]
  Plant response rating, Waterhemp: 30
[5]; [20]
  Plant response rating, Waterhemp: 85
[5]; [21]
  Plant response rating, Waterhemp: 95
[5]; [22]
  Waterhemp plant response rating: 100
[5]; [23]
  Waterhemp plant response rating: 85
[6]; [16]
  Plant response rating, Pigweed: 65
[6]; [17]
  Pigweed plant response rating: 85
[6]; [18]
  Plant response rating, Pigweed: 85
[6]; [19]
  Plant response rating, Pigweed: 55
[6]; [20]
  Plant response rating, Pigweed: 95
[6]; [21]
  Plant response rating, Pigweed: 100
[6]; [22]
  Pigweed plant response rating: 100
[6]; [23]
  Pigweed plant response rating: 90
[7]; [16]
  Plant response rating, Nutsedge, Yellow: 70
[7]; [17]
  Nutsedge, Yellow plant response rating: 60
[7]; [18]
  Plant response rating, Nutsedge, Yellow: 80
[7]; [19]
  Plant response rating, Nutsedge, Yellow: 0
[7]; [20]
  Plant response rating, Nutsedge, Yellow: 20
[7]; [21]
  Plant response rating, Nutsedge, Yellow: 70
[7]; [22]
  Nutsedge, Yellow plant response rating: 85
[7]; [23]
  Nutsedge, Yellow plant response rating: 85
[8]; [16]
  Plant response rating, Morningglory: 95
[8]; [17]
  Morningglory plant response rating: 98
[8]; [18]
  Plant response rating, Morningglory: 100
[8]; [19]
  Plant response rating, Morningglory: 45
[8]; [20]
  Plant response rating, Morningglory: 85
[8]; [21]
  Plant response rating, Morningglory: 85
[8]; [22]
  Morningglory plant response rating: 90
[8]; [23]
  Morningglory plant response rating: 98
[9]; [16]
  Plant response rating, Foxtail, Giant: 85
[9]; [17]
  Foxtail, Giant plant response rating: 90
[9]; [18]
  Plant response rating, Foxtail, Giant: 95
[9]; [19]
  Plant response rating, Foxtail, Giant: 85
[9]; [20]
  Plant response rating, Foxtail, Giant: 95
[9]; [21]
  Plant response rating, Foxtail, Giant: 100
[9]; [22]
  Foxtail, Giant plant response rating: 100
[9]; [23]
  Foxtail, Giant plant response rating: 95
[10]; [16]
  Plant response rating, Ragweed: 70
[10]; [17]
  Ragweed plant response rating: 75
[10]; [18]
  Plant response rating, Ragweed: 90
[10]; [19]
  Plant response rating, Ragweed: 80
[10]; [20]
  Plant response rating, Ragweed: 95
[10]; [21]
  Plant response rating, Ragweed: 90
[10]; [22]
  Ragweed plant response rating: 95
[10]; [23]
  Ragweed plant response rating: 85
[11]; [16]
  Plant response rating, Wheat: 0
[11]; [17]
  Wheat plant response rating: 5
[11]; [18]
  Plant response rating, Wheat: 5
[11]; [19]
  Plant response rating, Wheat: 0
[11]; [20]
  Plant response rating, Wheat: 0
[11]; [21]
  Plant response rating, Wheat: 0
[11]; [22]
  Wheat plant response rating: 30
[11]; [23]
  Wheat plant response rating: 10
[12]; [16]
  Plant response rating, Galium: 95
[12]; [17]
  Galium plant response rating: 95
[12]; [18]
  Plant response rating, Galium: 95
[12]; [19]
  Plant response rating, Galium: 98
[12]; [20]
  Plant response rating, Galium: 95
[12]; [21]
  Plant response rating, Galium: 98
[12]; [22]
  Galium plant response rating: 100
[12]; [23]
  Galium plant response rating: 95
[13]; [16]
  Plant response rating, Lambsquarters: 90
[13]; [17]
  Lambsquarters plant response rating: 85
[13]; [18]
  Plant response rating, Lambsquarters: 95
[13]; [19]
  Plant response rating, Lambsquarters: 15
[13]; [20]
  Plant response rating, Lambsquarters: 60
[13]; [21]
  Plant response rating, Lambsquarters: 85
[13]; [22]
  Lambsquarters plant response rating: 95
[13]; [23]
  Lambsquarters plant response rating: 90
[14]; [16]
  Plant response rating, Velvetleaf: 70
[14]; [17]
  Velvetleaf plant response rating: 85
[14]; [18]
  Plant response rating, Velvetleaf: 90
[14]; [19]
  Plant response rating, Velvetleaf: 40
[14]; [20]
  Plant response rating, Velvetleaf: 60
[14]; [21]
  Plant response rating, Velvetleaf: 85
[14]; [22]
  Velvetleaf plant response rating: 85
[14]; [23]
  Velvetleaf plant response rating: 85
[15]; [16]
  Plant response rating, Blackgrass: 60
[15]; [17]
  Blackgrass plant response rating: 65
[15]; [18]
  Plant response rating, Blackgrass: 85
[15]; [19]
  Plant response rating, Blackgrass: 5
[15]; [20]
  Plant response rating, Blackgrass: 50
[15]; [21]
  Plant response rating, Blackgrass: 85
[15]; [22]
  Blackgrass plant response rating: 90
[15]; [23]
  Blackgrass plant response rating: 60

## COC(=O)Oc1c(C)nn(C)c(=O)c1-c1c([N+](=O)[O-])ccc2ccccc12 [Compound 162]
[1]; [16]
  Plant response rating, Oilseed Rape: 0
[1]; [17]
  Oilseed Rape plant response rating: 0
[1]; [18]
  Plant response rating, Oilseed Rape: 0
[1]; [23]
  Oilseed Rape plant response rating: 0
Soybean (Glycine max); [16]
  Plant response rating, Soybean: 0
Soybean (Glycine max); [17]
  Soybean plant response rating: 0
Soybean (Glycine max); [18]
  Plant response rating, Soybean: 0
Soybean (Glycine max); [23]
  Soybean plant response rating: 0
[2]; [16]
  Plant response rating, Crabgrass, Large: 0
[2]; [17]
  Crabgrass, Large plant response rating: 5
[2]; [18]
  Plant response rating, Crabgrass, Large: 10
[2]; [23]
  Crabgrass, Large plant response rating: 10
[3]; [16]
  Plant response rating, Johnsongrass: 5
[3]; [17]
  Johnsongrass plant response rating: 5
[3]; [18]
  Plant response rating, Johnsongrass: 10
[3]; [23]
  Johnsongrass plant response rating: 5
[4]; [16]
  Plant response rating, Barnyardgrass: 10
[4]; [17]
  Barnyardgrass plant response rating: 20
[4]; [18]
  Plant response rating, Barnyardgrass: 25
[4]; [23]
  Barnyardgrass plant response rating: 25
[5]; [16]
  Plant response rating, Waterhemp: 45
[5]; [17]
  Waterhemp plant response rating: 65
[5]; [18]
  Plant response rating, Waterhemp: 65
[5]; [23]
  Waterhemp plant response rating: 70
[6]; [16]
  Plant response rating, Pigweed: 75
[6]; [17]
  Pigweed plant response rating: 80
[6]; [18]
  Plant response rating, Pigweed: 90
[6]; [23]
  Pigweed plant response rating: 85
[7]; [16]
  Plant response rating, Nutsedge, Yellow: 20
[7]; [17]
  Nutsedge, Yellow plant response rating: 25
[7]; [18]
  Plant response rating, Nutsedge, Yellow: 30
[7]; [23]
  Nutsedge, Yellow plant response rating: 30
[8]; [16]
  Plant response rating, Morningglory: 60
[8]; [17]
  Morningglory plant response rating: 85
[8]; [18]
  Plant response rating, Morningglory: 90
[8]; [23]
  Morningglory plant response rating: 85
[9]; [16]
  Plant response rating, Foxtail, Giant: 5
[9]; [17]
  Foxtail, Giant plant response rating: 15
[9]; [18]
  Plant response rating, Foxtail, Giant: 40
[9]; [23]
  Foxtail, Giant plant response rating: 15
[10]; [16]
  Plant response rating, Ragweed: 70
[10]; [17]
  Ragweed plant response rating: 85
[10]; [18]
  Plant response rating, Ragweed: 90
[10]; [23]
  Ragweed plant response rating: 75
[11]; [16]
  Plant response rating, Wheat: 0
[11]; [17]
  Wheat plant response rating: 10
[11]; [18]
  Plant response rating, Wheat: 10
[11]; [23]
  Wheat plant response rating: 5
[12]; [16]
  Plant response rating, Galium: 90
[12]; [17]
  Galium plant response rating: 90
[12]; [18]
  Plant response rating, Galium: 98
[12]; [23]
  Galium plant response rating: 95
[13]; [16]
  Plant response rating, Lambsquarters: 85
[13]; [17]
  Lambsquarters plant response rating: 95
[13]; [18]
  Plant response rating, Lambsquarters: 95
[13]; [23]
  Lambsquarters plant response rating: 90
[14]; [16]
  Plant response rating, Velvetleaf: 5
[14]; [17]
  Velvetleaf plant response rating: 15
[14]; [18]
  Plant response rating, Velvetleaf: 70
[14]; [23]
  Velvetleaf plant response rating: 30
[15]; [16]
  Plant response rating, Blackgrass: 10
[15]; [17]
  Blackgrass plant response rating: 15
[15]; [18]
  Plant response rating, Blackgrass: 40
[15]; [23]
  Blackgrass plant response rating: 30
